Legend:
[1] = system: β-Glucosidase derived from A. niger; experiment: Reactivity toward various isoflavone glycosides (HPLC); type: biochemical, Aspergillus niger; set-up: glucoside / aglycon: unit not given here; conditions: 55 °C, pH 4.0
Description: (§1) Diglycosidase was diluted with an acetate buffer of pH 4.0 to prepare a 0.75 AU/mL enzyme solution. As references, a similar operation was conducted using β-glucosidase (manufactured by Fluka) derived from Aspergillus niger, β-glucosidase (manufactured by Sigma) derived from almond, β-xylosidase derived from pectinase G (manufactured by Amano Enzyme Inc.). Each of purified products of isoflavone glycosides (glycitin, acetylglycitin, malonylglycitin, daidzin, acetyldaidzin, malonyldaidzin, genistin, acetylgenistin, malonylgenistin, all manufactured by Nacalai Tesque, Inc.) was dissolved in methanol to prepare each 2 mM substrate solution. The reaction was carried out by mixing 10 μL of a substrate solution, 200 μL of 20 mM acetate buffer (pH 4.0), and 40 μL of each purified enzyme solution at a total liquid volume of 250 μL. The reaction was carried out at 55° C. and isolation of an aglycon isoflavone from an isoflavone glycoside in the reaction mixture was detected by HLPC at 0, 1, 3, and 6 hours of the reaction.
(§2) To the reaction mixture was added 700 μL of ethanol, followed by stirring and ultrasonication. After centrifugation at 15,000 rpm and 4° C. for 10 minutes, the supernatant was filtered through a filter and then the filtrate was applied to HPLC.
(§3) The isoflavone glycoside and aglycon isoflavone contained in the filtrate was separated and detected by a high performance liquid chromatography (HPLC, Shimadzu CLASS LC-10 system) using TOSOH TSK gel ODS-80TM column (manufactured by Tosoh Corporation). […] The absorbance at 260 nm was detected by a UV detector (Shimadzu, SPD-10AV). Using purified products (manufactured by Nacalai Tesque, Inc.) of the above isoflavone glycosides and aglycon isoflavones, the isoflavone glycoside and aglycon isoflavone were quantitatively determined according to a calibration curve method. By the way, unless otherwise stated, the measuring conditions of HPLC herein mean those described in the example.

Crude diglycosidase = experiment: Examination of substrate concentration in the conversion into isoflavone aglycons by diglycosidase using soybean materials; type: biochemical, Penicillium multicolor IAM7153;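 also: percent of the isoflavone family total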
Outline: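 Soybean materials (roasted soy flour, soymilk, defatted soybean, concentrated soy protein) at 2–30% (w/v) in 20 mM acetate pH 4.0 were reacted with crude diglycosidase at 55° C with shaking; enzyme solution added was 1.88 AU/mL. Samples taken at 0, 1, 3 and 6 h were ethanol-extracted and analyzed by HPLC.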

[2] = system: Diglycosidase derived from A. fumigatus; experiment: Reactivity toward various isoflavone glycosides (HPLC); type: biochemical, Aspergillus fumigatus; set-up: unit not given here; conditions: 55 °C, pH 4.0
Description: as §1, §2, §3

aglycon ([1]; Reaction time 0 h): 0
glucoside ([1]; Reaction time 0 h): 100
aglycon ([1]; Reaction time 1 h): 0
glucoside ([1]; Reaction time 1 h): 100
aglycon ([1]; Reaction time 3 h): 1
glucoside ([1]; Reaction time 3 h): 99
aglycon ([1]; Reaction time 6 h): 1.9
glucoside ([1]; Reaction time 6 h): 98.1
Decomposition efficiency: ratio of each glycoside/aglycon within its isoflavone family (Crude diglycosidase; concentrated soybean protein, substrate concentration 2%, heat treatment of enzyme no, reaction time 0 h): 35.8%
Decomposition efficiency: ratio of each glycoside/aglycon within its isoflavone family (Crude diglycosidase; concentrated soybean protein, substrate concentration 2%, heat treatment of enzyme no, reaction time 1 h): 14.3%
Decomposition efficiency: ratio of each glycoside/aglycon within its isoflavone family (Crude diglycosidase; concentrated soybean protein, substrate concentration 2%, heat treatment of enzyme no, reaction time 3 h): 5.3%
Decomposition efficiency: ratio of each glycoside/aglycon within its isoflavone family (Crude diglycosidase; concentrated soybean protein, substrate concentration 2%, heat treatment of enzyme no, reaction time 6 h): 0.0%
Decomposition efficiency: ratio of each glycoside/aglycon within its isoflavone family (Crude diglycosidase; concentrated soybean protein, substrate concentration 2%, heat treatment of enzyme yes, reaction time 6 h): 35.0%
Decomposition efficiency: ratio of each glycoside/aglycon within its isoflavone family (Crude diglycosidase; concentrated soybean protein, substrate concentration 5%, heat treatment of enzyme no, reaction time 0 h): 35.6%
Decomposition efficiency: ratio of each glycoside/aglycon within its isoflavone family (Crude diglycosidase; concentrated soybean protein, substrate concentration 5%, heat treatment of enzyme no, reaction time 1 h): 27.1%
Decomposition efficiency: ratio of each glycoside/aglycon within its isoflavone family (Crude diglycosidase; concentrated soybean protein, substrate concentration 5%, heat treatment of enzyme no, reaction time 3 h): 17.8%
Decomposition efficiency: ratio of each glycoside/aglycon within its isoflavone family (Crude diglycosidase; concentrated soybean protein, substrate concentration 5%, heat treatment of enzyme no, reaction time 6 h): 12.3%
Decomposition efficiency: ratio of each glycoside/aglycon within its isoflavone family (Crude diglycosidase; concentrated soybean protein, substrate concentration 5%, heat treatment of enzyme yes, reaction time 6 h): 34.4%
Decomposition efficiency: ratio of each glycoside/aglycon within its isoflavone family (Crude diglycosidase; concentrated soybean protein, substrate concentration 10%, heat treatment of enzyme no, reaction time 0 h): 35.7%
Decomposition efficiency: ratio of each glycoside/aglycon within its isoflavone family (Crude diglycosidase; concentrated soybean protein, substrate concentration 10%, heat treatment of enzyme no, reaction time 1 h): 31.2%
Decomposition efficiency: ratio of each glycoside/aglycon within its isoflavone family (Crude diglycosidase; concentrated soybean protein, substrate concentration 10%, heat treatment of enzyme no, reaction time 3 h): 26.2%
Decomposition efficiency: ratio of each glycoside/aglycon within its isoflavone family (Crude diglycosidase; concentrated soybean protein, substrate concentration 10%, heat treatment of enzyme no, reaction time 6 h): 23.9%
Decomposition efficiency: ratio of each glycoside/aglycon within its isoflavone family (Crude diglycosidase; concentrated soybean protein, substrate concentration 10%, heat treatment of enzyme yes, reaction time 6 h): 35.2%
Decomposition efficiency: ratio of each glycoside/aglycon within its isoflavone family (Crude diglycosidase; concentrated soybean protein, substrate concentration 20%, heat treatment of enzyme no, reaction time 0 h): 35.9%
Decomposition efficiency: ratio of each glycoside/aglycon within its isoflavone family (Crude diglycosidase; concentrated soybean protein, substrate concentration 20%, heat treatment of enzyme no, reaction time 1 h): 35.4%
Decomposition efficiency: ratio of each glycoside/aglycon within its isoflavone family (Crude diglycosidase; concentrated soybean protein, substrate concentration 20%, heat treatment of enzyme no, reaction time 3 h): 33.6%
Decomposition efficiency: ratio of each glycoside/aglycon within its isoflavone family (Crude diglycosidase; concentrated soybean protein, substrate concentration 20%, heat treatment of enzyme no, reaction time 6 h): 30.5%
Decomposition efficiency: ratio of each glycoside/aglycon within its isoflavone family (Crude diglycosidase; concentrated soybean protein, substrate concentration 20%, heat treatment of enzyme yes, reaction time 6 h): 35.8%
Decomposition efficiency: ratio of each glycoside/aglycon within its isoflavone family (Crude diglycosidase; concentrated soybean protein, substrate concentration 30%, heat treatment of enzyme no, reaction time 0 h): 33.9%
Decomposition efficiency: ratio of each glycoside/aglycon within its isoflavone family (Crude diglycosidase; concentrated soybean protein, substrate concentration 30%, heat treatment of enzyme no, reaction time 1 h): 35.9%
Decomposition efficiency: ratio of each glycoside/aglycon within its isoflavone family (Crude diglycosidase; concentrated soybean protein, substrate concentration 30%, heat treatment of enzyme no, reaction time 3 h): 30.7%
Decomposition efficiency: ratio of each glycoside/aglycon within its isoflavone family (Crude diglycosidase; concentrated soybean protein, substrate concentration 30%, heat treatment of enzyme no, reaction time 6 h): 28.3%
Decomposition efficiency: ratio of each glycoside/aglycon within its isoflavone family (Crude diglycosidase; concentrated soybean protein, substrate concentration 30%, heat treatment of enzyme yes, reaction time 6 h): 33.4%
Decomposition efficiency: ratio of each glycoside/aglycon within its isoflavone family (Crude diglycosidase; defatted soybean, substrate concentration 2%, heat treatment of enzyme no, reaction time 0 h): not detected
Decomposition efficiency: ratio of each glycoside/aglycon within its isoflavone family (Crude diglycosidase; defatted soybean, substrate concentration 2%, heat treatment of enzyme no, reaction time 1 h): not detected
Decomposition efficiency: ratio of each glycoside/aglycon within its isoflavone family (Crude diglycosidase; defatted soybean, substrate concentration 2%, heat treatment of enzyme no, reaction time 3 h): not detected
Decomposition efficiency: ratio of each glycoside/aglycon within its isoflavone family (Crude diglycosidase; defatted soybean, substrate concentration 2%, heat treatment of enzyme no, reaction time 6 h): not detected
Decomposition efficiency: ratio of each glycoside/aglycon within its isoflavone family (Crude diglycosidase; defatted soybean, substrate concentration 2%, heat treatment of enzyme yes, reaction time 6 h): not detected
Decomposition efficiency: ratio of each glycoside/aglycon within its isoflavone family (Crude diglycosidase; defatted soybean, substrate concentration 5%, heat treatment of enzyme no, reaction time 0 h): not detected
Decomposition efficiency: ratio of each glycoside/aglycon within its isoflavone family (Crude diglycosidase; defatted soybean, substrate concentration 5%, heat treatment of enzyme no, reaction time 1 h): not detected
Decomposition efficiency: ratio of each glycoside/aglycon within its isoflavone family (Crude diglycosidase; defatted soybean, substrate concentration 5%, heat treatment of enzyme no, reaction time 3 h): not detected
Decomposition efficiency: ratio of each glycoside/aglycon within its isoflavone family (Crude diglycosidase; defatted soybean, substrate concentration 5%, heat treatment of enzyme no, reaction time 6 h): not detected
Decomposition efficiency: ratio of each glycoside/aglycon within its isoflavone family (Crude diglycosidase; defatted soybean, substrate concentration 5%, heat treatment of enzyme yes, reaction time 6 h): not detected
Decomposition efficiency: ratio of each glycoside/aglycon within its isoflavone family (Crude diglycosidase; defatted soybean, substrate concentration 10%, heat treatment of enzyme no, reaction time 0 h): not detected
Decomposition efficiency: ratio of each glycoside/aglycon within its isoflavone family (Crude diglycosidase; defatted soybean, substrate concentration 10%, heat treatment of enzyme no, reaction time 1 h): not detected
Decomposition efficiency: ratio of each glycoside/aglycon within its isoflavone family (Crude diglycosidase; defatted soybean, substrate concentration 10%, heat treatment of enzyme no, reaction time 3 h): not detected
Decomposition efficiency: ratio of each glycoside/aglycon within its isoflavone family (Crude diglycosidase; defatted soybean, substrate concentration 10%, heat treatment of enzyme no, reaction time 6 h): not detected
Decomposition efficiency: ratio of each glycoside/aglycon within its isoflavone family (Crude diglycosidase; defatted soybean, substrate concentration 10%, heat treatment of enzyme yes, reaction time 6 h): not detected
Decomposition efficiency: ratio of each glycoside/aglycon within its isoflavone family (Crude diglycosidase; roasted soy flour, substrate concentration 2%, heat treatment of enzyme no, reaction time 0 h): 33.6%
Decomposition efficiency: ratio of each glycoside/aglycon within its isoflavone family (Crude diglycosidase; roasted soy flour, substrate concentration 2%, heat treatment of enzyme no, reaction time 1 h): not detected
Decomposition efficiency: ratio of each glycoside/aglycon within its isoflavone family (Crude diglycosidase; roasted soy flour, substrate concentration 2%, heat treatment of enzyme no, reaction time 3 h): not detected
Decomposition efficiency: ratio of each glycoside/aglycon within its isoflavone family (Crude diglycosidase; roasted soy flour, substrate concentration 2%, heat treatment of enzyme no, reaction time 6 h): not detected
Decomposition efficiency: ratio of each glycoside/aglycon within its isoflavone family (Crude diglycosidase; roasted soy flour, substrate concentration 2%, heat treatment of enzyme yes, reaction time 6 h): 34.4%
Decomposition efficiency: ratio of each glycoside/aglycon within its isoflavone family (Crude diglycosidase; roasted soy flour, substrate concentration 5%, heat treatment of enzyme no, reaction time 0 h): 33.8%
Decomposition efficiency: ratio of each glycoside/aglycon within its isoflavone family (Crude diglycosidase; roasted soy flour, substrate concentration 5%, heat treatment of enzyme no, reaction time 1 h): 11.8%
Decomposition efficiency: ratio of each glycoside/aglycon within its isoflavone family (Crude diglycosidase; roasted soy flour, substrate concentration 5%, heat treatment of enzyme no, reaction time 3 h): 7.2%
Decomposition efficiency: ratio of each glycoside/aglycon within its isoflavone family (Crude diglycosidase; roasted soy flour, substrate concentration 5%, heat treatment of enzyme no, reaction time 6 h): not detected
Decomposition efficiency: ratio of each glycoside/aglycon within its isoflavone family (Crude diglycosidase; roasted soy flour, substrate concentration 5%, heat treatment of enzyme yes, reaction time 6 h): 33.8%
Decomposition efficiency: ratio of each glycoside/aglycon within its isoflavone family (Crude diglycosidase; roasted soy flour, substrate concentration 10%, heat treatment of enzyme no, reaction time 0 h): 24.2%
Decomposition efficiency: ratio of each glycoside/aglycon within its isoflavone family (Crude diglycosidase; roasted soy flour, substrate concentration 10%, heat treatment of enzyme no, reaction time 1 h): 16.7%
Decomposition efficiency: ratio of each glycoside/aglycon within its isoflavone family (Crude diglycosidase; roasted soy flour, substrate concentration 10%, heat treatment of enzyme no, reaction time 3 h): 9.7%
Decomposition efficiency: ratio of each glycoside/aglycon within its isoflavone family (Crude diglycosidase; roasted soy flour, substrate concentration 10%, heat treatment of enzyme no, reaction time 6 h): not detected
Decomposition efficiency: ratio of each glycoside/aglycon within its isoflavone family (Crude diglycosidase; roasted soy flour, substrate concentration 10%, heat treatment of enzyme yes, reaction time 6 h): 35.1%
Decomposition efficiency: ratio of each glycoside/aglycon within its isoflavone family (Crude diglycosidase; roasted soy flour, substrate concentration 20%, heat treatment of enzyme no, reaction time 0 h): 31.8%
Decomposition efficiency: ratio of each glycoside/aglycon within its isoflavone family (Crude diglycosidase; roasted soy flour, substrate concentration 20%, heat treatment of enzyme no, reaction time 1 h): 22.9%
Decomposition efficiency: ratio of each glycoside/aglycon within its isoflavone family (Crude diglycosidase; roasted soy flour, substrate concentration 20%, heat treatment of enzyme no, reaction time 3 h): 13.8%
Decomposition efficiency: ratio of each glycoside/aglycon within its isoflavone family (Crude diglycosidase; roasted soy flour, substrate concentration 20%, heat treatment of enzyme no, reaction time 6 h): 10.0%
Decomposition efficiency: ratio of each glycoside/aglycon within its isoflavone family (Crude diglycosidase; roasted soy flour, substrate concentration 20%, heat treatment of enzyme yes, reaction time 6 h): 35.0%
Decomposition efficiency: ratio of each glycoside/aglycon within its isoflavone family (Crude diglycosidase; roasted soy flour, substrate concentration 30%, heat treatment of enzyme no, reaction time 0 h): 35.3%
Decomposition efficiency: ratio of each glycoside/aglycon within its isoflavone family (Crude diglycosidase; roasted soy flour, substrate concentration 30%, heat treatment of enzyme no, reaction time 1 h): 28.4%
Decomposition efficiency: ratio of each glycoside/aglycon within its isoflavone family (Crude diglycosidase; roasted soy flour, substrate concentration 30%, heat treatment of enzyme no, reaction time 3 h): 24.4%
Decomposition efficiency: ratio of each glycoside/aglycon within its isoflavone family (Crude diglycosidase; roasted soy flour, substrate concentration 30%, heat treatment of enzyme no, reaction time 6 h): 13.7%
Decomposition efficiency: ratio of each glycoside/aglycon within its isoflavone family (Crude diglycosidase; roasted soy flour, substrate concentration 30%, heat treatment of enzyme yes, reaction time 6 h): 34.4%
aglycon ([2]; Reaction time 0 h): 0
glucoside ([2]; Reaction time 0 h): 100
aglycon ([2]; Reaction time 1 h): 6
glucoside ([2]; Reaction time 1 h): 94
aglycon ([2]; Reaction time 3 h): 13.5
glucoside ([2]; Reaction time 3 h): 86.5
aglycon ([2]; Reaction time 6 h): 22.7
glucoside ([2]; Reaction time 6 h): 77.3
SMILES: COc1cc2c(=O)c(-c3ccc(O)cc3)coc2cc1O[C@@H]1O[C@H](COC(C)=O)[C@@H](O)[C@H](O)[C@H]1O [acetylglycitin, 6″-O-acetylglycitin]

Reference: patent US7118895B2, “Process for producing aglycon by using diglycosidase and flavor-improved food containing the aglycon and converting agent to be used in the process” (Amano Enzyme Inc., priority 2000, dated 2006)
